# According to patent publication US20250129070A1, “BIFUNCTIONAL ANDROGEN RECEPTOR COMPOUNDS” (priority 2023, published 2025):
# System: AR / CBP ternary complex
# Assay: Ternary complex formation assay (sandwich ELISA, AR capture / CBP detection) in VCaP cell lysates
# Format: cell-based
# Conditions: 1.5 hours treatment, sandwich ELISA (AR capture, CBP or p300 detection)
# Protocol: Preparation of Mouse Anti-AR Antibody Coated 96 Well Plates
# Black MaxiSorp plates: coat with 50 μL of mouse 1/50 diluted AR antibody (Monoclonal Antibody (AR 441 from Thermo Fisher); diluted in phosphate buffered saline (PBS). Spin the liquid to the bottom of the wells, if necessary. Incubate overnight at 4° C. Next day, wash 3 times with 200 μL of TBST. Block with 200 μL of blocking buffer (5% BSA in TBST) at room temperature for 2 hours (BSA: A4503 or A2153 from Sigma). Wash plates 3 times with TBST. Plates are ready for lysates Preparation of dimerizer treated lysates
# Culture cells in 96 wells at 50K VCaP cells/well for at least 3 days. Plate in 5% Omega charcoal stripped FBS in total volume of 200 uL. Treat with bifunctional for 1.5 hours by adding 1 μL of 200× stock in DMSO. Aspirate media/compound. Add and pipet-to-mix 70 μL of 1× AlphaLisa Lysis Buffer to each well (Perkin Elmer, AlphaLISA SureFire Ultra, diluted in water). Pipet up and down when adding lysis buffer to disrupt cells. Let lysis proceed for 30 min at 4° C.
# Incubate for 1 hour at room temperature. Flick out the lysates. Wash 3 times with TBST. Add 75 μL of rabbit CBP or p300 antibody to each well (diluted 1:5000 in blocking buffer (5% BSA in TBST). CBP antibody: (D6C5) Rabbit mAb #7389; p300 antibody: (D8Z4E) Rabbit mAb #86377. Incubate overnight at 4° C. Wash 3 times with 300 uL TBST, each time on shaker for 5-10 min. Prepare goat anti-rabbit antibody conjugated to HRP (1/100K dilution in blocking buffer) Invitrogen Catalog number: 32260. Add 75 μL of HRP-conjugated goat anti-rabbit antibody. Incubate at room temperature for 1 hour. Flick out the HRP-antibody mixture. Wash 7-8 times with TBST, each time on shaker for 10 min. Later washes try to overflow the wells so that no residual HRP remains bound to the sides of the well. Prepare and add 75 uL/well of QuantaRed Enhance Chemifluorescent HRP Substrate solution. Immediately read fluorescence on BMG ClarioStar (ex: 570/em 585), and repeat the read in 5 minutes and 15 minutes.
row,SMILES,EC50 [nM]
1,"CC(=O)N1CCc2c(c(N3CCCc4cc(-c5cnn(C)c5)c(C)cc43)nn2C2CN(CCC3CCN(c4ncc(C(=O)NC5C(C)(C)C(Oc6ccc(C#N)c(Cl)c6)C5(C)C)cn4)CC3)C2)C1 (centres unmarked) [Compound 160, 2-[4-[2-[3-[5-acetyl-3-[7-methyl-6-(1-methylpyrazol-4-yl)-3,4-dihydro-2H-quinolin-1-yl]-6,7-dihydro-4H-pyrazolo[4,3-c]pyridin-1-yl]azetidin-1-yl]ethyl]-1-piperidyl]-N-[3-(3-chloro-4-cyano-phenoxy)-2,2,4,4-tetramethyl-cyclobutyl]pyrimidine-5-carboxamide]",> 100
2,"COc1cc(OC2C(C)(C)C(NC(=O)c3ccc(N4CCC5(CCC(n6nc(N7CCCc8cc(-c9cnn(C)c9)c(C(F)F)cc87)c7c6CCN(C(C)=O)C7)CC5)C4)cc3)C2(C)C)ccc1C#N (centres unmarked) [Compound 405, 4-[8-[5-acetyl-3-[7-(difluoromethyl)-6-(1-methylpyrazol-4-yl)-3,4-dihydro-2H-quinolin-1-yl]-6,7-dihydro-4H-pyrazolo[4,3-c]pyridin-1-yl]-2-azaspiro[4.5]decan-2-yl]-N-[3-(4-cyano-3-methoxy-phenoxy)-2,2,4,4-tetramethyl-cyclobutyl]benzamide]",10 to 100
3,"COc1cc(OC2C(C)(C)C(NC(=O)c3ccc(N4CCC(C5CCC(n6nc(N7CCCc8cc(-c9cnn(C)c9)c(C(F)F)cc87)c7c6CCN(C(C)=O)C7)CC5)CC4)cc3)C2(C)C)ccc1C#N (centres unmarked) [Compound 259, 4-[4-[4-[5-acetyl-3-[7-(difluoromethyl)-6-(1-methylpyrazol-4-yl)-3,4-dihydro-2H-quinolin-1-yl]-6,7-dihydro-4H-pyrazolo[4,3-c]pyridin-1-yl]cyclohexyl]-1-piperidyl]-N-[3-(4-cyano-3-methoxy-phenoxy)-2,2,4,4-tetramethyl-cyclobutyl]benzamide]",1 to 10
4,"CC(=O)N1CCc2c(c(N3CCCc4cc(-c5cnn(C)c5)c(C(F)F)cc43)nn2C2CCN(C3CCC4(C3)CN(c3ncc(C(=O)NC5C(C)(C)C(Oc6ccc(C#N)c(Cl)c6)C5(C)C)cn3)C4)CC2)C1 (centres unmarked) [Compound 344, 2-[6-[4-[5-acetyl-3-[7-(difluoromethyl)-6-(1-methylpyrazol-4-yl)-3,4-dihydro-2H-quinolin-1-yl]-6,7-dihydro-4H-pyrazolo[4,3-c]pyridin-1-yl]-1-piperidyl]-2-azaspiro[3.4]octan-2-yl]-N-[3-(3-chloro-4-cyano-phenoxy)-2,2,4,4-tetramethyl-cyclobutyl]pyrimidine-5-carboxamide]",< 1
5,"COc1cc(OC2C(C)(C)C(NC(=O)c3ccc(N4CC(N5CC6(CCC(n7nc(N8CCCc9cc(-c%10cnn(C)c%10)c(C(F)F)cc98)c8c7CCN(C(C)=O)C8)CC6)C5)C4)cc3)C2(C)C)ccc1C#N (centres unmarked) [Compound 370, 4-[3-[7-[5-acetyl-3-[7-(difluoromethyl)-6-(1-methylpyrazol-4-yl)-3,4-dihydro-2H-quinolin-1-yl]-6,7-dihydro-4H-pyrazolo[4,3-c]pyridin-1-yl]-2-azaspiro[3.5]nonan-2-yl]azetidin-1-yl]-N-[3-(4-cyano-3-methoxy-phenoxy)-2,2,4,4-tetramethyl-cyclobutyl]benzamide]",< 1
6,"CC(=O)N1CCc2c(c(N3CCCc4cc(-c5cnn(C)c5)c(C(F)F)cc43)nn2C2CN(C(=O)C3CCN(c4ncc(C(=O)NC5C(C)(C)C(Oc6ccc(C#N)c(Cl)c6)C5(C)C)cn4)CC3)C2)C1 (centres unmarked) [Compound 119, 2-[4-[3-[5-acetyl-3-[7-(difluoromethyl)-6-(1-methylpyrazol-4-yl)-3,4-dihydro-2H-quinolin-1-yl]-6,7-dihydro-4H-pyrazolo[4,3-c]pyridin-1-yl]azetidine-1-carbonyl]-1-piperidyl]-N-[3-(3-chloro-4-cyano-phenoxy)-2,2,4,4-tetramethyl-cyclobutyl]pyrimidine-5-carboxamide]",< 1
7,"CC(=O)N1CCc2c(c(N3CCCc4cc(-c5cnco5)c(C(F)F)cc43)nn2C2CCN(CC3C(C)CN(c4ncc(C(=O)NC5C(C)(C)C(Oc6ccc(C#N)c(Cl)c6)C5(C)C)cn4)CC3C)CC2)C1 (centres unmarked) [Compound 424, 2-[4-[[4-[5-acetyl-3-[7-(difluoromethyl)-6-oxazol-5-yl-3,4-dihydro-2H-quinolin-1-yl]-6,7-dihydro-4H-pyrazolo[4,3-c]pyridin-1-yl]-1-piperidyl]methyl]-3,5-dimethyl-1-piperidyl]-N-[3-(3-chloro-4-cyano-phenoxy)-2,2,4,4-tetramethyl-cyclobutyl]pyrimidine-5-carboxamide]",< 1

# Other lines, results leading:
row,EC50 [nM],SMILES
1,< 1,"CC(=O)N1CCc2c(c(N3CCCc4cc(-c5cnn(C)c5)c(C(F)F)cc43)nn2C2CCC(N3CCN(c4ncc(C(=O)NC5C(C)(C)C(Oc6ccc(C#N)c(Cl)c6)C5(C)C)cn4)CC3)CC2)C1 (centres unmarked) [Compound 391, 2-[4-[4-[5-acetyl-3-[7-(difluoromethyl)-6-(1-methylpyrazol-4-yl)-3,4-dihydro-2H-quinolin-1-yl]-6,7-dihydro-4H-pyrazolo[4,3-c]pyridin-1-yl]cyclohexyl]piperazin-1-yl]-N-[3-(3-chloro-4-cyano-phenoxy)-2,2,4,4-tetramethyl-cyclobutyl]pyrimidine-5-carboxamide]"
2,< 1,"COc1cc(OC2C(C)(C)C(NC(=O)c3ccc(N4CC5(CCC(N6CCC(n7nc(N8CCCc9cc(-c%10cnn(C)c%10)c(C(F)F)cc98)c8c7CCN(C(C)=O)C8)CC6)C5)C4)cc3)C2(C)C)ccc1C#N (centres unmarked) [Compound 345, 4-[6-[4-[5-acetyl-3-[7-(difluoromethyl)-6-(1-methylpyrazol-4-yl)-3,4-dihydro-2H-quinolin-1-yl]-6,7-dihydro-4H-pyrazolo[4,3-c]pyridin-1-yl]-1-piperidyl]-2-azaspiro[3.4]octan-2-yl]-N-[3-(4-cyano-3-methoxy-phenoxy)-2,2,4,4-tetramethyl-cyclobutyl]benzamide]"
3,< 1,"COc1cc(OC2C(C)(C)C(NC(=O)c3ccc(OC4CCC(N5CCC(n6nc(N7CCCc8cc(-c9cnn(C)c9)c(C(F)F)cc87)c7c6CCN(C(C)=O)C7)CC5)CC4)cc3)C2(C)C)ccc1C#N (centres unmarked) [Compound 381, 4-[4-[4-[5-acetyl-3-[7-(difluoromethyl)-6-(1-methylpyrazol-4-yl)-3,4-dihydro-2H-quinolin-1-yl]-6,7-dihydro-4H-pyrazolo[4,3-c]pyridin-1-yl]-1-piperidyl]cyclohexoxy]-N-[3-(4-cyano-3-methoxy-phenoxy)-2,2,4,4-tetramethyl-cyclobutyl]benzamide]"
4,< 1,"CC(=O)N1CCc2c(c(N3CCCc4cc(-c5cnn(C)c5)c(C)cc43)nn2C2CCN(C(=O)CC3CCN(c4ncc(C(=O)NC5C(C)(C)C(Oc6ccc(C#N)c(Cl)c6)C5(C)C)cn4)CC3)CC2)C1 (centres unmarked) [Compound 176, 2-[4-[2-[4-[5-acetyl-3-[7-methyl-6-(1-methylpyrazol-4-yl)-3,4-dihydro-2H-quinolin-1-yl]-6,7-dihydro-4H-pyrazolo[4,3-c]pyridin-1-yl]-1-piperidyl]-2-oxo-ethyl]-1-piperidyl]-N-[3-(3-chloro-4-cyano-phenoxy)-2,2,4,4-tetramethyl-cyclobutyl]pyrimidine-5-carboxamide]"
